Values of other authors in patent publication US20060270611A1, “PEDIATRIC FORMULATION OF TOPIRAMATE” (priority 2005, published 2006).

Settings: clinical trials of human epilepsy; adjunctive therapy or monotherapy

Question: Which “efficacy in treating simple and complex partial seizures and secondarily generalized seizures” value does the source give for `CC1(C)O[C@H]2[C@H]3OC(C)(C)O[C@]3(COS(N)(=O)=O)OC[C@H]2O1` [Topiramate, 2,3:4,5-bis-O-(1-methylethylidene) β-D-fructopyranose sulfamate] here?
Answer: The value was “effective as adjunctive therapy or as monotherapy”.
